From patent US20240263142A1, “HUMAN OVARIAN CANCER NIRAPARIB-RESISTANT CELL STRAIN AND USE THEREOF” (WOMEN’S HOSPITAL, ZHEJIANG UNIVERSITY SCHOOL OF MEDICINE, priority 2022, published 2024)
Read-outs that look alike come from different tables or passages of the source.

Tests used:
A2780 cells = assay: CCK-8 cytotoxicity experiment on parental A2780 cells; format: cell-based; conditions: Homo sapiens, 72 h drug treatment
Description: (§1) A cell counting kit-8 (CCK-8) of Shanghai Beyotime Biotechnology Co., Ltd. (C0038) was used in the cytotoxicity experiment. Cells in logarithmic growth phase were collected, and the concentration of cell suspension was adjusted to 5×10^4 cells/ml; 100 μl of the cell suspension was added to each well of 96-well plate, and the density of the cells to be tested was 5000 cells/well; cultures were incubated overnight in the incubator with 5 vol % CO2 at 37° C. until the cells were grown as adherent monolayers, and then drugs with concentrations of 1×10^−3-100 μM were added respectively; 3 replicate wells were set for each concentration; OD values were determined after 72 h of drug treatment; 10 μl CCK-8 solution was added to each well; after further incubation in the cell incubator for 2 h, the absorbance was measured at 450 nm using a microplate reader (Bio-Rad, Model 680), as shown in FIG. 3. The IC50 of the drug was calculated.

A2780-NiraR cells = assay: CCK-8 cytotoxicity experiment on Niraparib-resistant A2780-NiraR cells (resistance index, stability of resistance); format: cell-based, human; conditions: for Drug resistance index (RI) = IC50 of drug-resistant cells/IC50 of parental cells: A2780-NiraR vs A2780; for IC50: Homo sapiens
Description: as §1
Resistance index (RI)=IC50 of drug-resistant cells/IC50 of parental cells.
After the establishment of A2780-NiraR cell strain, the drug resistance was re-tested after cell resuscitation following 3-month drug-withdrawal culture and 6-month liquid nitrogen cryopreservation. The procedure was the same as that of the resistance index determination in part 3.

[1] = A2780-NiraR cells, 72 h drug treatment, CCK-8, read-out: IC50

Row | Structure (SMILES) | IC50 (A2780 cells) | Resistance of A2780-NiraR cells in words (A2780-NiraR cells; A2780-NiraR cells) | Drug resistance index (RI) = IC50 of drug-resistant cells/IC50 of parental cells (A2780-NiraR cells) | IC50 (A2780-NiraR cells; [1]) | IC50 (A2780-NiraR cells; A2780-NiraR after resuscitation following 3-month drug-withdrawal culture and 6-month liquid nitrogen cryopreservation, read-out: IC50 of A2780-NiraR on re-test)
1 | CC(=O)O[C@H]1C(=O)[C@@]2(C)[C@H]([C@H](OC(=O)c3ccccc3)[C@]3(O)C[C@H](OC(=O)[C@H](O)[C@@H](NC(=O)c4ccccc4)c4ccccc4)C(C)=C1C3(C)C)[C@]1(OC(C)=O)CO[C@@H]1C[C@@H]2O [Paclitaxel] | 0.01 µM | cross-resistant | 31.02 | 0.318 µM | 
2 | NC(=O)c1cccc2cn(-c3ccc([C@@H]4CCCNC4)cc3)nc12 [Niraparib] | 3.17 µM | highly resistant | 8.274 | 26.2 µM | 24 µM
